*1 amine or outer side, *2 acyl side, *3 side chain or, on linkers, in order; H or OH if unused. Where a SMILES comes first, the peptide text is derived from it. Bridges are numbered along the chain shown (N, C = ends). [ ]: non-standard residue; d: D form. X1 = CC(C)NC[C@H](N[*:1])C(=O)[*:2]; Cha = N[C@@H](CC1CCCCC1)C(=O)O; Tle = CC(C)(C)[C@H](N)C(=O)O; dDab = NCC[C@@H](N)C(=O)O; Nle = CCCC[C@H](N)C(=O)O; Orn = NCCC[C@H](N)C(=O)O; Dab = NCC[C@H](N)C(=O)O; Dap = NC[C@H](N)C(=O)O; Sar = CNCC(=O)O
Legend:
Format in all cases: cell-based
[1] = test system: Klebsiella pneumoniae 968733; conditions: 968733
[2] = test system: Acinetobacter baumannii DSM 30008; conditions: DSM 30008
Procedure, shortened: (§1)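 Using the CLSI reference method, each strain at approx. 10^6 CFU/mL was exposed to serially diluted peptide in MH-II broth with 0.002% P-80. After 18-20 h at 35° C, the lowest concentration showing no visible growth gave the MIC.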

[3] = test system: Pseudomonas aeruginosa ATCC 27853; conditions: ATCC 27853
Procedure, shortened: as §1

[4] = test system: Klebsiella pneumoniae SSI #3010; conditions: SSI #3010
Procedure, shortened: as §1

[5] = test system: Acinetobacter baumannii 872842; conditions: 872842
[6] = test system: Escherichia coli ATCC 25922; conditions: ATCC 25922
Procedure, shortened: as §1

[7] = test system: Escherichia coli 926415; conditions: 926415
[8] = test system: human red blood cells (hRBC); test: Hemolysis of human red blood cells; conditions: red cells of human, 1 h, 100 μg/mL
Procedure, shortened: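 Hemolysis was read as supernatant absorbance at 540 nm and expressed as a percentage of Triton X-100 (2.5%) lysis. Washed human red cells (20% v/v) had been exposed to each peptide at 100 μg/mL for 1 h at 37° C.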

| SMILES | Klebsiella pneumoniae 968733 MIC [1] [µg/mL] | Acinetobacter baumannii DSM 30008 MIC [2] [µg/mL] | Pseudomonas aeruginosa ATCC 27853 MIC [3] [µg/mL] | Klebsiella pneumoniae SSI #3010 MIC [4] [µg/mL] | Acinetobacter baumannii 872842 MIC [5] [µg/mL] | Escherichia coli ATCC 25922 MIC [6] [µg/mL] | Escherichia coli 926415 MIC [7] [µg/mL] | Hemolysis at 100 μg/mL [8] [%] |
| --- | --- | --- | --- | --- | --- | --- | --- | --- |
| CC(=O)N[C@@H](Cc1c[nH]c2ccccc12)C(=O)N[C@H]1CSSC[C@@H](C(=O)N[C@@H](CCCN)C(=O)N[C@H](CCN)C(=O)N[C@@H](CCN)C(=O)N[C@@H](CCN)C(=O)N[C@H]2CCNC(=O)[C@H]([C@@H](C)O)NC(=O)[C@H](CCN)NC(=O)[C@H](CCN)NC(=O)[C@H](CC(C)C)NC(=O)[C@@H](Cc3ccccc3)NC(=O)[C@H](CCN)NC2=O)NC(=O)[C@H](Cc2ccc(O)cc2)NC(=O)[C@H](CN)NC(=O)[C@H](Cc2ccccc2)NC(=O)[C@H](Cc2ccccc2)NC(=O)[C@H]2CCCN2C(=O)[C@H](CO)NC(=O)[C@H](C)NC(=O)[C@H](C(C)(C)C)NC1=O [Ex. 137] (Ac-WC[Tle]AS[dP]FF[Dap]YC[Orn][dDab][Dab][Dab][Dab][Dab][dF]L[Dab][Dab]T; disulfide 2-11; lactam 16-C) | 0.5 | 0.5 | 1 | 0.5 | 0.5 | 0.25 | 0.5 | 4 |
| CC(=O)N[C@@H](Cc1c[nH]c2ccccc12)C(=O)N[C@H]1CSSC[C@@H](C(=O)N[C@@H](CCCN)C(=O)N[C@H](C(=O)N[C@@H](CCN)C(=O)N[C@@H](CCN)C(=O)N[C@H]2CCNC(=O)[C@H]([C@@H](C)O)NC(=O)[C@H](CCN)NC(=O)[C@H](CCN)NC(=O)[C@H](CC(C)C)NC(=O)[C@@H](Cc3ccccc3)NC(=O)[C@H](CCN)NC2=O)[C@@H](C)O)NC(=O)[C@H](Cc2ccc(O)cc2)NC(=O)[C@H](Cc2c[nH]cn2)NC(=O)[C@H](Cc2c[nH]c3ccccc23)NC(=O)[C@@H]2CCCN2C(=O)[C@H]2CCCN2C(=O)[C@H](CO)NC(=O)[C@H](C)NC(=O)[C@H](C(C)(C)C)NC1=O [Ex. 138] (Ac-WC[Tle]AS[dP]PWHYC[Orn]T[Dab][Dab][Dab][Dab][dF]L[Dab][Dab]T; disulfide 2-11; lactam 16-C) | 2 | 0.5 | 4 | 0.5 | 1 | 0.25 | 4 | 3 |
| CC(=O)N[C@@H](Cc1c[nH]c2ccccc12)C(=O)N[C@H]1CSSC[C@@H](C(=O)N[C@@H](CCCN)C(=O)N[C@H](C(=O)N[C@@H](CCN)C(=O)N[C@@H](CCN)C(=O)N[C@H]2CCNC(=O)[C@H]([C@@H](C)O)NC(=O)[C@H](CCN)NC(=O)[C@H](CCN)NC(=O)[C@H](CC(C)C)NC(=O)[C@@H](Cc3ccccc3)NC(=O)[C@H](CCN)NC2=O)[C@@H](C)O)NC(=O)[C@H](CC2CCCCC2)NC(=O)[C@H](CNC(C)C)NC(=O)[C@H](Cc2c[nH]c3ccccc23)NC(=O)[C@@H]2CCCN2C(=O)[C@H]2CCCN2C(=O)[C@H](CO)NC(=O)[C@H](C)NC(=O)[C@H](C(C)(C)C)NC1=O [Ex. 139] (Ac-WC[Tle]AS[dP]PW[X1][Cha]C[Orn]T[Dab][Dab][Dab][Dab][dF]L[Dab][Dab]T; disulfide 2-11; lactam 16-C) | 4 | 1 | 2 | 2 | 2 | 2 | 1 | 4 |
| CC(C)C[C@@H]1NC(=O)[C@@H](CC(C)C)NC(=O)[C@H](CCN)NC(=O)[C@@H](NC(=O)[C@H](CCN)NC(=O)[C@@H](NC(=O)[C@H](CCN)NC(=O)CN(C)C(=O)[C@@H]2CSSC[C@H](NC(=O)[C@@H](N)Cc3c[nH]c4ccccc34)C(=O)N[C@@H](C(C)(C)C)C(=O)N[C@@H](Cc3ccc(O)cc3)C(=O)N[C@@H](CO)C(=O)N3CCC[C@@H]3C(=O)N3CCC[C@H]3C(=O)N[C@@H](CC(C)C)C(=O)N[C@@H](CN)C(=O)N[C@@H](Cc3ccc(O)cc3)C(=O)N2)[C@@H](C)O)CCNC(=O)[C@H]([C@@H](C)O)NC(=O)[C@H](CCN)NC(=O)[C@H](CCN)NC1=O [Ex. 140] (H-WC[Tle]YS[dP]PL[Dap]YC[Sar][Dab]T[Dab][Dab][Dab][dL]L[Dab][Dab]T; disulfide 2-11; lactam 16-C) | 1 | 0.125 | 0.5 | 0.0625 | 0.125 | 0.0625 | 0.125 | <1 |
| CCCC[C@@H]1NC(=O)[C@@H]2CCCN2C(=O)[C@H]2CCCN2C(=O)[C@H](C)NC(=O)[C@H](CO)NC(=O)[C@H](C(C)C)NC(=O)[C@@H](NC(=O)[C@@H](N)Cc2c[nH]c3ccccc23)CSSC[C@@H](C(=O)N(C)CC(=O)N[C@@H](CCN)C(=O)N[C@H](C(=O)N[C@@H](CCN)C(=O)N[C@H]2CCNC(=O)[C@H]([C@@H](C)O)NC(=O)[C@H](CCN)NC(=O)[C@H](CCN)NC(=O)[C@H](CC(C)C)NC(=O)[C@@H](CC(C)C)NC(=O)[C@H](CCN)NC2=O)[C@@H](C)O)NC(=O)[C@H](Cc2ccc(O)cc2)NC(=O)[C@H](CN)NC1=O [Ex. 141] (H-WCVSA[dP]P[Nle][Dap]YC[Sar][Dab]T[Dab][Dab][Dab][dL]L[Dab][Dab]T; disulfide 2-11; lactam 16-C) | 2 | 0.125 | 2 | 0.125 | 0.125 | 0.0625 | 0.125 | <1 |
| CC(=O)N[C@@H](Cc1c[nH]c2ccccc12)C(=O)N[C@H]1CSSC[C@@H](C(=O)N[C@@H](CCCN)C(=O)N[C@H](C(=O)N[C@@H](CCN)C(=O)N[C@@H](CCN)C(=O)N[C@H]2CCNC(=O)[C@H]([C@@H](C)O)NC(=O)[C@H](CCN)NC(=O)[C@H](CCN)NC(=O)[C@H](CC(C)C)NC(=O)[C@@H](Cc3ccccc3)NC(=O)[C@H](CCN)NC2=O)[C@@H](C)O)NC(=O)[C@H](Cc2ccc(O)cc2)NC(=O)[C@H](CO)NC(=O)[C@H](CC(C)C)NC(=O)[C@@H]2CCCN2C(=O)[C@H]2CCCN2C(=O)[C@H](CN)NC(=O)[C@H](C)NC(=O)[C@H](C(C)(C)C)NC1=O [Ex. 142] (Ac-WC[Tle]A[Dap][dP]PLSYC[Orn]T[Dab][Dab][Dab][Dab][dF]L[Dab][Dab]T; disulfide 2-11; lactam 16-C) | 1 | 0.25 | 0.25 | 0.5 | 0.125 | 0.5 | 0.25 | <1 |
